Measured values from article PMC8178808, “Exploring conformational preferences of proteins: ionic liquid effects on the energy landscape of avidin” (Chemical Science, 2020).

Target: T1, avidin (unmodified, native) (Gallus gallus, UniProt P02701)
T1 construct: gene AVD; natural secreted glycoprotein from egg white (mature chain, signal peptide removed), commercial lyophilised (Merck), untagged; homotetramer, one ligand site per monomer
Assay: UV-Vis titration at […] nm, non-linear regression (Hill-Langmuir)
Assay type: binding
Settings: read-out: Unmodified avidin / K d (×10^-5 mol dm^-3)

T1 sequence (P02701 25-152): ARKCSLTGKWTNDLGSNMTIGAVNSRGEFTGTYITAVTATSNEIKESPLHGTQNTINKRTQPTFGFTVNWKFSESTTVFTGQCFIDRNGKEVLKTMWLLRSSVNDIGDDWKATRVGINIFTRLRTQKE

## O=C(O)c1ccccc1N=Nc1ccc(O)cc1 [HABA]
  Kd: 11 µM
